Test results published in the supplement of paper PMC10331698.
± gives the standard deviation of the averaged measurements.

Legend:
Assay in all cases: level (log10 ratio to DMSO vehicle control); higher = higher biomarker level / cell amount than vehicle control
Details in all cases: in DMSO
[1] = compound: CCN(CCO)S(=O)(=O)C(F)(F)C(F)(F)C(F)(F)C(F)(F)C(F)(F)C(F)(F)C(F)(F)C(F)(F)F [N-Ethyl-N-(2-hydroxyethyl)perfluorooctanesulfonamide]
Procedure: (§1)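 BioMAP Diversity Plus panel of 12 human primary cell co-culture systems (3C, 4H, LPS, SAg, BT, BF4T, BE3C, CASM3C, HDF3CGF, KF3CT, MyoF, Mphg). Compounds were added 1 h before stimulation and left for 24 h (MyoF 48 h; BT 72 h for soluble read-outs or 6 d for IgG). Biomarkers were read by ELISA, cytotoxicity by SRB, PBMC viability and proliferation by Alamar Blue. Each well value was divided by the mean of 8 DMSO control wells on the same plate and log10 transformed; duplicate blinded samples were tested at 4 concentrations.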

[2] = compound: O=C(O)C(F)(F)OC(F)(F)C(F)(F)OC(F)(F)F [Perfluoro-3,6-dioxaheptanoic acid]
Procedure: as §1

[3] = compound: O=C(O)C(F)(F)C(F)(F)OC(F)(F)F [Perfluoro-3-methoxypropanoic acid]
Procedure: as §1

[4] = compound: O=C(O)C(F)(F)C(F)(F)C(F)(F)C(F)(F)F [Perfluoropentanoic acid]
Procedure: as §1

[5] = compound: FC(F)(F)C(F)(F)C(F)(F)C(F)(F)C(F)(F)C(F)(F)C(F)(F)C(F)(F)CCS [2-(Perfluorooctyl)ethanthiol]
Procedure: as §1

[6] = compound: O=C(O)C(F)(F)C(F)(F)C(F)(F)OC(F)(C(F)(F)F)C(F)(F)F [Perfluoro-4-isopropoxybutanoic acid]
Procedure: as §1

[7] = compound: NC(=O)C(F)(F)C(F)(F)C(F)(F)F [Heptafluorobutyramide]
Procedure: as §1

Row | Test System | level (log10) ([1]; 6700 nM) | level (log10) ([1]; 20000 nM) | level (log10) ([2]; 6700 nM) | level (log10) ([2]; 20000 nM) | level (log10) ([2]; 60000 nM) | level (log10) ([3]; 6700 nM) | level (log10) ([3]; 20000 nM) | level (log10) ([3]; 60000 nM) | level (log10) ([4]; 6700 nM) | level (log10) ([4]; 20000 nM) | level (log10) ([4]; 60000 nM) | level (log10) ([5]; 6700 nM) | level (log10) ([5]; 20000 nM) | level (log10) ([6]; 6700 nM) | level (log10) ([6]; 20000 nM) | level (log10) ([6]; 60000 nM) | level (log10) ([7]; 6700 nM) | level (log10) ([7]; 20000 nM) | level (log10) ([7]; 60000 nM)
1 | BT:sIL-17A | 0.122 ± 0.083 | -0.631 ± 0.21 | -0.0275 ± 0.093 | -0.102 ± 0.26 | -0.155 ± 0.16 | 0.035 ± 0.27 | -0.0495 ± 0.076 | 0.0575 ± 0.12 | 0.0585 ± 0.042 | -0.0535 ± 0.0078 | 0.055 ± 0.13 | -0.0475 ± 0.022 | -0.05 ± 0.042 | 0.027 ± 0.05 | 0.052 ± 0.096 | -0.0105 ± 0.21 | -0.0055 ± 0.22 | -0.177 ± 0.22 | 0.058 ± 0.082
2 | BT:sIL-17F | -0.0225 ± 0.029 | -0.299 ± 0.037 | -0.0035 ± 0.18 | -0.033 ± 0.027 | -0.0495 ± 0.021 | -0.161 ± 0.067 | -0.033 ± 0.052 | -0.0115 ± 0.011 | -0.06 ± 0.027 | -0.0325 ± 0.044 | 0.0375 ± 0.19 | -0.068 ± 0.055 | 0.092 ± 0.062 | -0.0935 ± 0.005 | -0.092 ± 0.04 | -0.063 ± 0.045 | -0.001 ± 0.035 | -0.0165 ± 0.018 | -0.006 ± 0.03
3 | BT:sTNF-alpha | -0.031 ± 0.082 | -0.312 ± 0.1 | 0.0935 ± 0.056 | 0.0375 ± 0.17 | 0.0755 ± 0.036 | 0.055 ± 0.035 | -0.0805 ± 0.084 | 0.0205 ± 0.17 | -0.0575 ± 0.25 | 0.0875 ± 0.012 | 0.105 ± 0.04 | 0.16 ± 0.015 | 0.065 ± 0.035 | -0.0005 ± 0.076 | 0.026 ± 0.083 | 0.085 ± 0.078 | 0.0705 ± 0.096 | -0.057 ± 0.025 | -0.0225 ± 0.0035
4 | LPS:CCL2/MCP-1 | -0.017 ± 0.025 | -0.0535 ± 0.012 | 0.0005 ± 0.022 | -0.001 ± 0.04 | -0.0085 ± 0.025 | -0.005 ± 0.0057 | 0.003 ± 0.0071 | 0.0055 ± 0.03 | 0.0065 ± 0.0064 | -0.0065 ± 0.00071 | 0.0225 ± 0.039 | 0.018 | 0.026 ± 0.013 | -0.0045 ± 0.016 | 0.022 ± 0.025 | 0.0725 ± 0.0035 | 0.0255 ± 0.0035 | 0.0105 ± 0.0078 | 0.0275 ± 0.057
5 | LPS:CD40 | 0.0735 ± 0.022 | 0.122 ± 0.0042 | -0.0055 ± 0.012 | -0.0295 ± 0.039 | -0.024 ± 0.038 | 0.0045 ± 0.013 | 0.0095 ± 0.015 | 0.0135 ± 0.039 | 0.0115 ± 0.011 | 0.0075 ± 0.022 | -0.0265 ± 0.013 | -0.034 ± 0.055 | -0.0305 ± 0.11 | 0.012 ± 0.041 | -0.011 ± 0.018 | -0.0405 ± 0.023 | 0.0065 ± 0.022 | -0.004 ± 0.071 | 0.001 ± 0.059
6 | LPS:CD62E/E-Selectin | 0.071 ± 0.02 | 0.073 ± 0.0042 | 0 ± 0.021 | -0.018 ± 0.05 | -0.006 ± 0.017 | -0.0015 ± 0.011 | -0.0075 ± 0.005 | 0.0105 ± 0.0035 | 0.01 ± 0.0057 | -0.004 ± 0.0071 | 0.015 ± 0.018 | 0.0275 ± 0.025 | 0.013 ± 0.011 | -0.004 ± 0.013 | -0.013 ± 0.048 | 0.001 ± 0.021 | -0.0065 ± 0.022 | -0.0195 ± 0.016 | -0.0365 ± 0.035
7 | LPS:CD69 | -0.134 ± 0.0028 | -0.226 ± 0.0042 | -0.0125 ± 0.0064 | -0.044 ± 0.035 | -0.0165 ± 0.019 | -0.0065 ± 0.013 | -0.02 ± 0.013 | 0.013 ± 0.025 | 0.007 ± 0.011 | -0.0305 ± 0.013 | -0.0135 ± 0.083 | 0.019 ± 0.024 | 0.0125 ± 0.043 | -0.0005 ± 0.023 | -0.006 ± 0.0042 | -0.0145 ± 0.046 | 0.028 ± 0.076 | -0.0065 ± 0.056 | -0.009 ± 0.069
8 | LPS:CD106/VCAM-1 | -0.0195 ± 0.023 | -0.0395 ± 0.012 | -0.0215 ± 0.023 | -0.007 ± 0.0085 | -0.0105 ± 0.005 | 0.0065 ± 0.013 | -0.0065 ± 0.00071 | -0.01 ± 0.0028 | 0.005 ± 0.013 | 0.004 ± 0.0057 | 0.0035 ± 0.023 | -0.007 ± 0.04 | -0.0225 ± 0.005 | -0.0015 ± 0.016 | -0.0075 ± 0.0078 | -0.0095 ± 0.028 | 0.0005 ± 0.005 | -0.0005 ± 0.012 | -0.0145 ± 0.029
9 | LPS:CD141/Thrombomodulin | 0.117 ± 0.0042 | 0.201 | -0.033 ± 0.081 | -0.018 ± 0.067 | -0.0165 ± 0.012 | 0.0175 ± 0.036 | 0.0075 ± 0.022 | 0.0255 ± 0.028 | -0.0115 ± 0.047 | -0.045 ± 0.073 | -0.0085 ± 0.11 | 0.0055 ± 0.0064 | -0.0385 ± 0.028 | 0.0205 ± 0.012 | 0.016 ± 0.013 | 0.0225 ± 0.0035 | -0.018 ± 0.05 | -0.0175 ± 0.064 | -0.0175 ± 0.035
10 | LPS:CD142/Tissue Factor | 0.139 ± 0.038 | 0.312 ± 0.037 | -0.0335 ± 0.011 | 0.0145 ± 0.023 | 0.009 ± 0.0028 | 0.0095 ± 0.013 | 0.032 ± 0.021 | 0.0125 ± 0.073 | 0.006 ± 0.0099 | -0.007 ± 0.051 | 0.031 ± 0.099 | 0.0455 ± 0.081 | 0.097 ± 0.065 | 0.019 ± 0.033 | 0.0165 ± 0.011 | -0.016 ± 0.1 | -0.0035 ± 0.028 | 0.002 ± 0.061 | -0.0245 ± 0.047
11 | LPS:CXCL8/IL-8 | 0.039 ± 0.0042 | -0.003 ± 0.0028 | 0.007 ± 0.028 | 0.0265 ± 0.0064 | 0.0505 ± 0.0078 | 0.0285 ± 0.035 | 0.018 ± 0.017 | 0.027 ± 0.0014 | -0.0075 ± 0.00071 | -0.0095 ± 0.022 | 0.0245 ± 0.052 | -0.0195 ± 0.035 | 0.0235 ± 0.053 | 0.0515 ± 0.0021 | 0.0935 ± 0.035 | 0.134 ± 0.018 | -0.01 ± 0.038 | -0.0025 ± 0.032 | 0.0115 ± 0.0078
12 | LPS:IL-1alpha | -0.098 ± 0.013 | -0.141 ± 0.026 | -0.0605 ± 0.0035 | -0.0075 ± 0.0064 | -0.0055 ± 0.036 | -0.025 ± 0.0071 | -0.0285 ± 0.0078 | 0.0005 ± 0.0021 | -0.0005 ± 0.00071 | -0.0115 ± 0.012 | -0.021 ± 0.017 | -0.045 ± 0.0042 | -0.012 ± 0.055 | -0.043 ± 0.0071 | -0.0015 ± 0.013 | 0.0205 ± 0.064 | -0.014 ± 0.018 | -0.0125 ± 0.0035 | 0.013 ± 0.054
13 | LPS:M-CSF | 0.0495 ± 0.033 | 0.104 ± 0.041 | -0.0505 ± 0.056 | -0.014 ± 0.055 | -0.0185 ± 0.057 | 0.001 ± 0.0085 | -0.0165 ± 0.00071 | 0.0235 ± 0.015 | -0.031 ± 0.024 | -0.061 ± 0.11 | -0.0385 ± 0.11 | 0.0095 ± 0.0035 | -0.0035 ± 0.0092 | 0.001 ± 0.0057 | -0.004 ± 0.023 | 0.016 ± 0.0028 | -0.003 ± 0.016 | -0.006 ± 0.0014 | -0.006 ± 0.0057
14 | LPS:SRB | -0.0345 ± 0.0035 | -0.084 ± 0.02 | -0.011 ± 0.0028 | -0.0105 ± 0.00071 | -0.0095 ± 0.00071 | 0.006 ± 0.0085 | 0.011 ± 0.0099 | 0.026 ± 0.0028 | 0.0015 ± 0.0078 | 0.004 | 0.003 ± 0.0085 | 0.0025 ± 0.0078 | -0.003 ± 0.014 | 0.0075 ± 0.015 | 0.018 ± 0.0099 | 0.0215 ± 0.016 | -0.0115 ± 0.015 | -0.009 ± 0.0071 | -0.002 ± 0.0071
15 | LPS:sPGE2 | -0.023 ± 0.023 | 0.07 ± 0.0042 | -0.0065 ± 0.047 | -0.0395 ± 0.018 | -0.006 ± 0.021 | -0.0295 ± 0.03 | 0.0045 ± 0.052 | -0.0185 ± 0.011 | -0.008 ± 0.11 | -0.018 ± 0.0028 | 0.017 ± 0.011 | -0.017 ± 0.025 | -0.022 ± 0.011 | -0.0145 ± 0.043 | -0.0585 ± 0.022 | -0.0615 ± 0.023 | -0.0305 ± 0.057 | 0.011 ± 0.0042 | -0.004 ± 0.0071
16 | LPS:sTNF-alpha | -0.006 ± 0.0028 | -0.005 ± 0.0085 | -0.012 ± 0.027 | -0.0265 ± 0.023 | -0.0205 ± 0.005 | 0.036 ± 0.011 | 0.036 ± 0.045 | 0.06 ± 0.059 | 0.003 ± 0.021 | 0.01 ± 0.0071 | 0.021 ± 0.014 | 0.052 ± 0.013 | 0.098 ± 0.0071 | -0.0215 ± 0.15 | -0.012 ± 0.13 | -0.031 ± 0.1 | 0.012 ± 0.017 | 0.013 ± 0.011 | 0.001 ± 0.023
